What all share (format): physicochemical
Data set [1] in a line: Switching efficiency by 1H NMR, method B (DMF internal standard). As to conditions: relative to DMF standard set to 100. An excerpt:
In both methods, to quantify the concentration of surfactant in solution, its ^1H NMR integration was compared to one of two internal standards of known concentration. In addition to the difference in which internal standard was used, the two methods can also be distinguished from each other on the basis of the timing of the addition of the internal standard. In method A, the standard remains in the solution during the process of switching. In method B, the switching is executed first and the DMF solution of known strength and quantity is added in to the solution.
In both methods, the surfactant was turned OFF with CO2 by positioning the needle that supplied the CO2 to the surfactant solution above the solution in such a way that the slow flow of CO2 was allowed to interact with the surfactant solution at the surface. The switching from ON to OFF required 5 min or less. Increasing the surface area, for example, by slightly tilting the vial, expedited the switching from ON to OFF. To turn the surfactant ON, the solution was stirred at 70° C. for 40 min as described above. After each ON cycle, 0.5 mL of D2O was added to the solution to compensate for the loss in the volume caused by evaporation.
The surfactant solution was prepared by combining 0.046 g of octyl 4-hydroxy-3-nitrobenzoate and 0.136 g of Na2CO3 in 16.0 mL of D2O. The resultant solution was homogenized by sonication for 2 min. 1.00 mL of this solution was transferred using a Hamilton syringe into thirteen different vials (1, 2, 2*, 3, 4, 5, 6, 7, 8, 9, 10, 11 and 12). Stirring bars were introduced in vials 2* through 12. […] The surfactant in vial 2 was turned OFF by the procedure described above. The solution in vial 2* was turned OFF with CO2 and was then left stirring uncapped at room temperature for 18 h. All the vials (excluding 2*) were tightly capped and left at room temperature for 18 h to confirm the stability of the systems in both the ON/OFF forms upon standing.
The standard solution of DMF was prepared by mixing 0.005 mL of DMF in 8.0 mL of D2O. […] The ^1H NMR spectra of all solutions were recorded. […]

Data set [2] in a line: Surface tension studies (tensiometer measurements). The protocol: A stock solution of compound (1A) was prepared by combining 0.460 g (1.559 mmol) of octyl 4-hydroxy-3-nitrobenzoate (1N) and 1.36 g (12.83 mmol) of Na2CO3 in 160 mL of deionized H2O. The resultant solution was homogenized by sonication for 2 min using a sonicating machine (model […], available from Fisher Scientific, Ottawa, Canada). 10 mL of the homogeneous solution was transferred into each of thirteen vials (13×10 mL, vial numbers: 1, 2, 2*, 3, 4, 5, 6, 7, 8, 9, 10, 11 and 12). The levels of solution in all the vials were marked using a marker pen on the outside of the vials. A stir bar was introduced in vials 2* through 12.
The solutions in each vial were turned OFF and back ON according to Table 1. […] In vials 2 and 2*, the surfactant was turned OFF. In vial 2*, following the OFF-turning, the uncapped vial contents were stirred at room temperature for 48 h.
Vials (other than vial 2*) were left at room temperature for 18 h prior to surface tension measurements. Where necessary, water was added to the vials until the total volume matched the original marked levels.
The contents of vials with even numbers (OFF) were filtered by passing them through a Kimwipe™ plug in a pipette to obtain a clear solution.
Surface tension for all solutions was measured in triplicate. The three values of surface tension for each solution remained within ±1 dynes/cm indicating good reproducibility. The tensiometer (Surface Tensiomat 21, Model 14814, available from Fischer Scientific, Ottawa, Canada) was calibrated using deionized water. The initial value of 72 dynes/cm obtained for water was acceptable within experimental error.

A short description of data set [3]: pH studies of ON and OFF surfactant solutions. The protocol:
For pH studies described below, a pH meter (Orion 4 Star Conductivity Benchtop, available from ThermoElectron Corporation, Mass., USA) was used. The pH meter was calibrated before the measurements as per the instructions provided with the pH meter. All solutions were prepared using deionized water. All pH measurements were done at 25° C.
Surfactant solution was prepared by dissolving n-octyl 4-hydroxy-3-nitrobenzoate (0.443 g, 1.502 mmol) and anhydrous Na2CO3 (1.27 g, 12.02 mmol) in 150 mL of deionized water. The resultant solution was homogenized by sonication for 2 min. Aliquots (10.0 mL) of this solution were transferred into eleven different vials numbered as 1, 2, 3, 4, 5, 6, 7, 8, 9, 10, and 11 by Hamilton syringe. The level of the solution in each vial was marked using a marker. Stirring bars were introduced in vials 3 to 11. […] To turn the surfactant OFF, CO2 was slowly bubbled through a solution for 10 min (formation of the OFF form was observed by formation of light yellow solid precipitate). To turn the surfactant ON the solution was heated and stirred while immersed in an oil bath preset at 70° C., for 40 min. The solution in vial 2 was turned OFF. The solution in vial 3 was first turned OFF and then ON. The solution in vial 4 was first turned OFF then ON and finally OFF. After completion of the indicated cycle, each vial was first allowed to cool down to room temperature (if the cycle marked its completion with the surfactant in ON form), the solution was then diluted with deionized water. To be consistent with the previous experiments, all the vials were tightly capped (using […]™) and allowed to stand for 18 h at room temperature (see FIG. 2).

“And” between values parts separate entries of the source, which are not always exact repeats. Equal values may be shown once.

As for `CCCCCCCCOC(=O)c1ccc(O)c([N+](=O)[O-])c1` [compound (1A), 2-nitro-4-(octyloxycarbonyl)phenolate], the “Proton integration at ~7.3 δ” value in data set [1] (D2O with Na2CO3, vial 1, control, never switched (ON)) is recorded as 46; in data set [1] (vial 2*: turned OFF with CO2, then stirred uncapped at room temperature) it was 45. In addition, the Average surface tension in data set [2] (1.559 mmol (1N) + 12.83 mmol Na2CO3 in 160 mL water, vial 1, control, never switched (ON)) amounted to 35 dynes/cm; in data set [2] (vial 2*: turned OFF, then stirred uncapped at room temperature for 48 h), 35 dynes/cm. The “average value of the surface tension over the ON vials” value in data set [2] (ON form, vials 1, 3, 5, 7, 9, 11) came to 34 dynes/cm. Further, the “pH when turned OFF” value in data set [3] (0.01 M compound (1) + 0.08 M Na2CO3, after CO2 bubbling, 25° C.) turned out to be 8.02. Moreover, the “pH when turned ON” value in data set [3] (0.01 M compound (1) + 0.08 M Na2CO3, after heating at 70° C. for 40 min, measured at 25° C.) came out at 8.78. Besides, in data set [3] (0.01 M compound (1) neutral form + 0.08 M Na2CO3 in water, 25° C.), the “pH of Original stock solution (ON)” value was found to be 10.87. Besides, the “average pH value of the solution in ON form” value in data set [3] (ON form after cycling) was 9.31. Also, the “pH of the solution” value in data set [3] (vial 1, control, never switched (ON), 1.502 mmol (1N) + 12.02 mmol Na2CO3 in 150 mL water) was 10.85; in data set [3] (vials 3, 5, 7, 9, 11: cycles of Table 1 ending ON), 9.26 and 9.24 and 9.22 and 9.44 and 9.38.
Take `CCCCCCCCOC(=O)c1ccc(O)c([N+](=O)[O-])c1` [compound (1N), octyl 4-hydroxy-3-nitrobenzoate]: the “Proton integration at ~7.3 δ” value in data set [1] (filtered solution, vials 2, 4, 6, 8, 10, 12: cycles of Table 1 ending OFF (CO2)) is reported as 0. For the same molecule, in data set [2] (OFF form, vials 2, 4, 6, 8, 10, 12), the “average value of the surface tension over the OFF vials” value worked out at 61 dynes/cm. Moreover, the “average pH value of the solutions in the OFF form” value in data set [3] (OFF form) is given as 7.73. The “pH of the solution” value in data set [3] (vials 2, 4, 6, 8, 10: cycles of Table 1 ending OFF) was 7.88 and 7.70 and 7.89 and 7.35 and 7.83.

The values are drawn from patent US20110124745A1, “Switchable Anionic Surfactants and Methods of Making and Using Same” (priority 2009, published 2011).
